Measurements as given in patent publication US9758492B2, “IDO inhibitors” (Bristol-Myers Squibb Company, priority 2013, dated 2017).

Biological target: IDO (Homo sapiens, UniProt P14902)
Assay: LLE_IDO_ABS_DR (IDO assay)

IDO, sequence (P14902 whole entry): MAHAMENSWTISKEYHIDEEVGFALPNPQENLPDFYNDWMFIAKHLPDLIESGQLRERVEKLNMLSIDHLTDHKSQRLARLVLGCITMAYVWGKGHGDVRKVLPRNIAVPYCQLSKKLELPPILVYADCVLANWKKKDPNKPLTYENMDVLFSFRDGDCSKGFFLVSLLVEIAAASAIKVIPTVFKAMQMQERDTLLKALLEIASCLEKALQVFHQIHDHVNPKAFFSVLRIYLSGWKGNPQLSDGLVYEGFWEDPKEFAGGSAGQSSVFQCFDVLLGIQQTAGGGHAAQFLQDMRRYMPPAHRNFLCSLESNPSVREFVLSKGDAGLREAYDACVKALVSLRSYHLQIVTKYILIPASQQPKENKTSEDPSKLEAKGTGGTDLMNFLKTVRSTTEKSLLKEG

IC50 [nM] | Compound
4670 | O=C(Nc1ccc(C(F)(F)F)cc1F)Nc1cc(-c2ccccc2-c2nnn[nH]2)ccc1N1CCCc2ccccc21 [Example 364, 1-(4-(3,4-Dihydroquinolin-1(2H)-yl)-2′-(1H-tetrazol-5-yl)-[1,1′-biphenyl]-3-yl)-3-(2-fluoro-4-(trifluoromethyl)phenyl)urea]
4180 | CC(C)CN(CC(C)C)c1ccc(-c2ccccc2-c2nnn[nH]2)cc1NC(=O)Nc1ccccc1-n1cncn1 [Example 256, 1-(2-(1H-1,2,4-triazol-1-yl)phenyl)-3-(4-(diisobutylamino)-2′-(1H-tetrazol-5-yl)-[1,1′-biphenyl]-3-yl)urea]
820 | O=C(Nc1cc(-c2ccccc2-c2nnn[nH]2)ccc1N(CCC(F)(F)F)Cc1ccccn1)Nc1ccccc1C(F)(F)F [Example 345, 1-(4-((pyridin-2-ylmethyl)(3,3,3-trifluoropropyl)amino)-2′-(1H-tetrazol-5-yl)-[1,1′-biphenyl]-3-yl)-3-(2-(trifluoromethyl)phenyl)urea]
2340 | CCC1CCCCN1c1ccc(-c2ccccc2C(=O)O)cc1NC(=O)Nc1ccccc1F (stereo not shown) [Example 116, 4′-(2-ethylpiperidin-1-yl)-3′-(3-(2-fluorophenyl)ureido) biphenyl-2-carboxylic acid]
0.76 | CC(C)CN(CC(C)C)c1ccc(-c2ccccc2-c2nnn[nH]2)cc1NC(=O)Nc1c(F)cc(Cl)cc1F [Example 243, 1-(4-chloro-2,6-difluorophenyl)-3-(4-(diisobutylamino)-2′-(1H-tetrazol-5-yl)-[1,1′-biphenyl]-3-yl)urea]
6.47 | Cc1ccc(NC(=O)Nc2cc(-c3ccccc3C(=O)O)cc(F)c2N(CC(C)C)CC(C)C)cc1 [Example 6, 4′-(Diisobutylamino)-3′-fluoro-5′-(3-p-tolylureido)biphenyl-2-carboxylic acid]
80 | Cc1ccc(NC(=O)Nc2cc(-c3ccccc3-c3nnn[nH]3)ccc2N(Cc2ccc(Cl)cc2)C2CCCCC2)cc1 [Example 468]
1450 | COc1ccccc1NC(=O)Nc1cc(-c2ccccc2-c2nnn[nH]2)ccc1N(CC(C)C)CC(C)C [Example 281, 1-(4-(diisobutylamino)-2′-(1H-tetrazol-5-yl)biphenyl-3-yl)-3-(2-methoxyphenyl)urea]
2500 | Cc1ccc(NC(=O)Nc2cc(-c3ccccc3-c3nnn[nH]3)ccc2N2CCC(c3ccccc3)C2)cn1 (racemic) [Example 368, (±)-1-(6-Methylpyridin-3-yl)-3-(4-(3-phenylpyrrolidin-1-yl)-2′-(1H-tetrazol-5-yl)-[1,1′-biphenyl]-3-yl)urea]
130 | CN(c1ccc(-c2ccccc2-c2nnn[nH]2)cc1NC(=O)Nc1ccccc1F)c1ccccc1C(C)(C)C [Example 207, 1-(4-((2-(tert-butyl)phenyl) (methyl)amino)-2′-(1H-tetrazol-5-yl)-[1,1′-biphenyl]-3-yl)-3-(2-fluorophenyl)urea]
4.99 | [2H]C([2H])(C(C)C)N(c1ccc(-c2ccccc2C(=O)O)cc1NC(=O)Nc1ccccc1F)C1CCCCC1 [Example 33, 4′-(Cyclohexyl(1,1-dideutero-2-methylpropyl)amino)-3′-(3-(2-fluorophenyl)ureido)biphenyl-2-carboxylic acid]
560 | CC(C)CN(CC(C)C)c1ccc(-c2ccc(F)cc2C(=O)O)cc1NC(=O)Nc1ccccc1Cl [Example 68, 3′-(3-(2-chlorophenyl)ureido)-4′-(diisobutylamino)-4-fluorobiphenyl-2-carboxylic acid]
210 | CCn1nc(C)c(-c2ccc(N(CC(C)C)CC(C)C)c(NC(=O)Nc3ccc(C)cc3)c2)c1C(=O)O [Example 102, 4-(4-(diisobutylamino)-3-(3-p-tolylureido)phenyl)-1-ethyl-3-methyl-1H-pyrazole-5-carboxylic acid]
980 | Cc1ccc(NC(=O)Nc2cc(-c3ccncc3C(=O)O)ccc2N(CC(C)C)CC(C)C)cc1 [Example 159, 4-(4-(diisobutylamino)-3-(3-p-tolylureido)phenyl) nicotinic acid]
110 | CC(C)CN(CC(C)C)c1ccc(-c2ccccc2-c2nnn[nH]2)cc1NC(=O)Nc1ccc(F)c(Cl)c1 [Example 286, 1-(3-chloro-4-fluorophenyl)-3-(4-(diisobutylamino)-2′-(1H-tetrazol-5-yl)biphenyl-3-yl)urea]
5050 | CC(C)CN(CC(C)C)c1ccc(-c2ccccc2-c2nnn[nH]2)cc1NC(=O)Nc1ccc(F)c(S(C)(=O)=O)c1 [Example 279, 1-(4-(diisobutylamino)-2′-(1H-tetrazol-5-yl)-[1,1′-biphenyl]-3-yl)-3-(4-fluoro-3-(methylsulfonyl)phenyl) urea]
30 | CC(C)CN(CCC1CC1)c1ccc(-c2ccccc2C(=O)O)cc1NC(=O)Nc1ccccc1F [Example 134, 4′-((2-cyclopropylethyl) (isobutyl)amino)-3′-(3-(2-fluorophenyl)ureido)biphenyl-2-carboxylic acid]
6840 | Cc1ccc(NC(=O)Nc2cc(-c3cc(F)ccc3C(=O)O)ccc2N(CCC(C)(C)O)Cc2ccc(Cl)cc2)cc1 [Example 374]
150 | CC(C)CN(CC(C)C)c1ccc(-c2ccccc2-c2nnn[nH]2)cc1NC(=O)Nc1ccc2ncsc2c1 [Example 143, 1-(benzo[d]thiazol-6-yl)-3-(4-(diisobutylamino)-2′-(1H-tetrazol-5-yl)biphenyl-3-yl)urea]
180 | O=C(Nc1ccc(C(F)(F)F)cc1F)Nc1cc(-c2ccccc2-c2nnn[nH]2)ccc1N(CCC(F)(F)F)Cc1ccc(F)cc1C(F)(F)F [Example 300, 1-(4-((4-fluoro-2-(trifluoromethyl)benzyl) (3,3,3-trifluoropropyl)amino)-2′-(1H-tetrazol-5-yl)-[1,1′-biphenyl]-3-yl)-3-(2-fluoro-4-(trifluoromethyl)phenyl)urea]
5060 | O=C(Nc1ccc(F)nc1)Nc1cc(-c2ccccc2-c2nnn[nH]2)ccc1N1CCCc2ccccc21 [Example 365, 1-(4-(3,4-Dihydroquinolin-1(2H)-yl)-2′-(1H-tetrazol-5-yl)-[1,1′-biphenyl]-3-yl)-3-(6-fluoropyridin-3-yl)urea]
2.14 | CC(C)CN(c1cc(F)c(-c2ccccc2C(=O)O)cc1NC(=O)Nc1ccc(F)cc1F)C1CCCCC1 [Example 230, 4′-(cyclohexyl(isobutyl)ami-no)-5′-(3-(2,4-difluorophenyl)ureido)-2′-fluorobiphenyl-2-carboxylic acid]
110 | Cc1ccc(NC(=O)Nc2cc(-c3cc(F)ccc3C(=O)O)ccc2N(CCC(F)(F)F)CC(C)C)cc1 [Example 200, 5-fluoro-4′-(isobutyl (3,3,3-trifluoropropyl)amino)-3′-(3-(p-tolyl)ureido)-[1,1′-biphenyl]-2-carboxylic acid]
3740 | O=C(Nc1ccc(F)nc1)Nc1cc(-c2ccccc2-c2nnn[nH]2)ccc1N1CCC(c2ccccc2)C1 (racemic) [Example 371, (±)-1-(6-Fluoropyridin-3-yl)-3-(4-(3-phenylpyrrolidin-1-yl)-2′-(1H-tetrazol-5-yl)-[1,1′-biphenyl]-3-yl)urea]
40 | CCN(CC(C)(C)C)c1ccc(-c2ccccc2-c2nnn[nH]2)cc1NC(=O)Nc1ccc(C)cc1 [Example 110, 1-(4-(ethyl(neopentyl)amino)-2′-(1H-tetrazol-5-yl)biphenyl-3-yl)-3-p-tolylurea]
